Experimental data: publication PMC9505538, “P-Glycoprotein (MDR1/ABCB1) Restricts Brain Accumulation of the Novel EGFR Inhibitor EAI045 and Oral Elacridar Coadministration Enhances Its Brain Accumulation and Oral Exposure” (Pharmaceuticals, 2022)

Legend:
[1] = test system: L858R/T790M EGFR mutant kinase; design: method as in PMID 27251290; conditions: cited from earlier work
[2] = target: T1, murine Abcg2 (Mus musculus, UniProt Q7TMS5); assay: Transepithelial transport of EAI045, MDCK-II cells transduced with murine Abcg2; type: in vitro ADME; conditions: for efflux ratio r (relative transport ratio): EAI045 5 μM
T1 construct: expressed in transfected cells; host or cells: MDCK-II cells, stably transduced, generated in the authors' institute
T1 sequence (Q7TMS5 1-657): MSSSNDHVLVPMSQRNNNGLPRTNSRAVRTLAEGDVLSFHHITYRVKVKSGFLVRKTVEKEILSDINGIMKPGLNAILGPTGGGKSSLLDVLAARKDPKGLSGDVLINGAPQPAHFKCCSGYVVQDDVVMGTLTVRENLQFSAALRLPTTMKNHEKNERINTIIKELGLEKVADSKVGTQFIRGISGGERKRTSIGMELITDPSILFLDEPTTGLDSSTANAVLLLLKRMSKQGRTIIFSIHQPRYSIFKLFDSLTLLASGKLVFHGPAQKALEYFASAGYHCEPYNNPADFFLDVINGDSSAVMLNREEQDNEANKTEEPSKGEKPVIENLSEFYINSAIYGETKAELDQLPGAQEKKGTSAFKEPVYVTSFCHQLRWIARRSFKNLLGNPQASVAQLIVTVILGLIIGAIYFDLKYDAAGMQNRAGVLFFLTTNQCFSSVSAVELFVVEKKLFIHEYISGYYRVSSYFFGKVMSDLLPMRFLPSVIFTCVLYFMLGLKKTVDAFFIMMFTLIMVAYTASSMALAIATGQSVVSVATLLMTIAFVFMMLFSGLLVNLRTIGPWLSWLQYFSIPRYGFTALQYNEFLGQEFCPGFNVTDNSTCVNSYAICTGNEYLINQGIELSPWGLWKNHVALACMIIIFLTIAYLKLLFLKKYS
Method: Transport of EAI045 (5 μM) across epithelia was tested using cell layers of Madin–Darby Canine Kidney (MDCK-II) cells and derived clones expressing hABCB1, hABCG2, or mAbcg2 cDNA. […] In cells overexpressing hABCB1, there was clear transport of EAI045 in the apical direction (r = 5.5, Figure 1C). […] To evaluate the interaction between hABCG2 and mAbcg2 and EAI045, zosuquidar (5 μM) was added to inhibit any endogenous canine ABCB1. In cells overexpressing hABCG2, the BA transport of EAI045 was somewhat increased relative to the AB transport, resulting in an efflux ratio of 1.4 (Figure 1E).
Figure 1 In vitro transepithelial transport of EAI045 (5 μM) using MCDK-II parental cells (A,B) or transduced with human ABCB1 (C,D), human ABCG2 (E,F), or murine Abcg2 (G,H) cDNA. At t = 0 EAI045 was added in the donor compartment (either apical or basolateral). At 1, 2, and 4 h EAI045 was quantified in the acceptor compartment and the cumulative total transported amount per well was plotted (n = 3). Zosuquidar (5 μM) was added to inhibit the human and/or the endogenous ABCB1, while Ko143 (5 μM) was added to inhibit the human or murine ABCG2. r, relative transport ratio. […] Points, mean; bars, SD. TEXT PRINTED IN THE PICTURE: (A) no label printed: Parental: r = 1.7 | (B) no label printed: Parental + Zos.: r = 1.1 | (C) no label printed: hABCB1: r = 5.5 | (D) no label printed: hABCB1 + Zos.: r = 1.3 | (E) no label printed: hABCG2 + Zos.: r = 1.4 | (F) no label printed: hABCG2 + Zos. + Ko143: r = 1.1 | (G) no label printed: mAbcg2 + Zos.: r = 1.8 | (H) no label printed: mAbcg2 + Zos. + Ko143: r = 1.4
Madin–Darby Canine Kidney (MDCK-II) cells (ECACC 00062107) stably transduced with human (h) ABCB1, hABCG2, or mouse (m) Abcg2 cDNA were generated in our institute between 1998 and 2005. […] In short, cells were allowed to grow an intact monolayer in 3 days, which was monitored with transepithelial electrical resistance (TEER) measurements, both before and after the transport phase. […] Proper functionality of these cell lines was monitored by continual testing with a variety of drug substrates.

[3] = 24 h pharmacokinetic pilot experiment in WT, Cyp3a-/- and Cyp3aXAV mice; type: in vivo, mice (Mus musculus)
Method: To determine whether EAI045 and CYP3A interact in vivo, we carried out a 24 h pharmacokinetic pilot experiment using oral EAI045 at 20 mg/kg in female WT, Cyp3a knockout (Cyp3a^-/-), and transgenic Cyp3aXAV mice (these are humanized Cyp3a^-/- mice that express the human CYP3A4 in liver and small intestine). The plasma exposure and tissue distribution of EAI045 and PIA were measured. The tmax in all strains was around 5–30 min. […] In contrast, relative to Cyp3a^-/- or WT mice, the AUC0–30min and Cmax were not changed in Cyp3aXAV mice (Supplemental Figure S8A–C). Similar results were obtained for PIA (Supplemental Figure S8D–F). While not plotted separately, the PIA/EAI045 AUC ratios were also hardly changed between the three mouse strains.
All samples were stored at −30 °C until analysis.
Differences were considered statistically significant when p < 0.05. Data are presented as mean ± SD.

O=C(Nc1nccs1)C(c1cc(F)ccc1O)N1Cc2ccccc2C1=O (stereo not shown) [EAI045]
inhibition of the EGFR mutant relative to wild-type EGFR [1]: most selective inhibition | efflux ratio r (relative transport ratio) ([2]; mAbcg2 + zosuquidar 5 μM): 1.8 | efflux ratio r (relative transport ratio) ([2]; mAbcg2 + zosuquidar 5 μM + Ko143 5 μM): 1.4 | transport by mouse Abcg2 ([2]; in vitro): at best slightly transported | plasma exposure of EAI045 over 30 min (AUC0–30min), fold lower ([3]; Cyp3a-/- mice than WT mice, 20 mg/kg oral): 1.6 fold | AUC0–30min and Cmax ([3]; Cyp3aXAV mice relative to Cyp3a-/- or WT mice, 20 mg/kg oral): not changed | tmax ([3]; female WT, Cyp3a-/- and Cyp3aXAV mice (all strains), EAI045 20 mg/kg oral): 5 to 30 min
